In article PMC6057649, “Development of NanoLuc-PEST expressing Leishmania mexicana as a new drug discovery tool for axenic- and intramacrophage-based assays” (PLoS Neglected Tropical Diseases, 2018):
Where “and” joins values, the source holds several entries; their conditions need not be identical. Equal entries are not always repeated. Where two headings read alike, the source gives them in different places. Peptide text beside a SMILES is read from it. * marks the point of attachment. Cbz = O=C(OCc1ccccc1)*

Legend:
[1] = test system: NanoLuc-PEST-expressing L. mexicana promastigotes and axenic amastigotes; test: Cycloheximide and proteasome (MG-132) assays on luciferase signal; format: cell-based; settings: 5 μM, 6 hours
Procedure: Detection of NanoLuc and NanoLuc-PEST enzymes was performed using the lytic Nano-Glo Assay (Promega), according to the manufacturer’s instructions. Detection of PRE9 was performed using either the Firefly Luciferase Glow Assay (Pierce), or the Bright-Glow Assay (Promega). Bioluminescence was measured using the Promega GloMax Multi Detection System. All data was normalised by subtracting bioluminescence values for the untransformed, parental line, and all assays done in triplicate.
Cycloheximide assays were performed over 8 hours. Cells were seeded to a cell density of 5 x10^5 cells/well (100 μL/well). Cycloheximide (Sigma) was added to each well to a final concentration of 100 μM and incubated with cells for a range of time points between 0 and 8 hours. Bioluminescence was measured as described above, and the half-life of each luciferase was calculated by one phase decay non-linear regression (GraphPad Prism 6.0). Proteosome assays were performed using the method above with the addition of 5 μM MG-132 (Sigma) for 6 hours. Statistical significance was determined using a paired, two-tailed T-test (GraphPad Prism 6.0).

[2] = test system: L. mexicana NanoLuc-PEST intramacrophage amastigotes; test: Bioluminescence-based intramacrophage assay in THP-1 infection model; format: cell-based; settings: for EC50: read-out: EC50 against amastigotes, Intramacrophage; for EC90: read-out: EC90 against amastigotes, Intramacrophage
[3] = test system: NanoLuc-PEST expressing L. mexicana axenic amastigotes; test: microbe, parasite or virus in culture; format: cell-based
[4] = test system: L. mexicana intramacrophage amastigotes; set-up: method as in PMID 14695832; settings: values in brackets ref 52, read-out: Previous EC50, intramacrophage amastigotes; cited from earlier work
HepG2 = settings: read-out: HepG2 CC50; ref MMV Pathogen Box website; cited from earlier work
[5] = test system: NanoLuc-PEST expressing L. mexicana axenic amastigotes; test: Fluorescence-based (AlamarBlue) viability assay, NanoLuc-PEST axenic amastigotes; settings: Leishmania mexicana, 72 h
[6] = test system: L. mexicana axenic amastigotes; set-up: method as in PMID 9087496; settings: L. mexicana axenic amastigotes ref 47; read-out: Previous EC50, axenic amastigotes; cited from earlier work
[7] = test system: Leishmania spp. intramacrophage amastigotes; settings: value in brackets ref 55, read-out: Previous EC50, intramacrophage amastigotes; cited from earlier work
[8] = test system: wild-type L. mexicana axenic amastigotes; test: Fluorescence-based (AlamarBlue) viability assay, parental axenic amastigotes; settings: Leishmania mexicana, 72 h
[9] = Leishmania mexicana, THP-1 infection model, bioluminescence
[10] = Leishmania mexicana; 2 µM compound, 72 hours, relative to DMSO only control, n = 4; read-out: Relative Bioluminescence (%)
[11] = Leishmania mexicana; 10 µM compound, 72 hours, relative to DMSO only control, n = 4; read-out: Relative Bioluminescence (%)
[12] = Leishmania mexicana; read-out: EC50 against amastigotes, Axenic
[13] = Leishmania mexicana; read-out: EC90 against amastigotes, Axenic
[14] = Leishmania mexicana, 72 h; read-out: EC50

CC(C)C[C@@H](C=O)NC(=O)[C@H](CC(C)C)NC(=O)[C@H](CC(C)C)NC(=O)OCc1ccccc1 [MG-132] (Cbz-Leu-Leu-Leu-aldehyde)
bioluminescence relative to the DMSO control [1]: statistically significant increase

CC(C)(C)[C@H]1CC[C@H](CC2=C(O)C(=O)c3ccccc3C2=O)CC1 [MMV689480, Buparvaquone, reference compound]
EC50 [2, 9]: 394 nM | EC90 [2, 9]: 1260 nM | viability at 2 µM [3, 10]: -0.24% | viability at 10 µM [3, 11]: 0.15% | EC50 ([3]; Leishmania mexicana; hit compounds from the axenic amastigote screen, S3 Table; read-out: EC50, Axenic Amastigotes): 2.2 nM | EC50 [3, 12]: 2 nM | EC90 [3, 13]: 11 nM | EC50 [4]: 1250 nM and 1440 nM

CCc1c(C)nc(-n2nc(C)cc2NC(=O)c2ccccc2SC)[nH]c1=O [MMV676477]
CC50 (HepG2): 1300 nM | EC50 [2]: 4780 nM | EC90 [2]: 6110 nM | EC50 (THP-1 cell line): > 50000 nM | Relative Bioluminescence (%) ([3]; 2 µM compound, 72 hours, relative to DMSO only control, n = 4): -0.98% | Relative Bioluminescence (%) ([3]; 10 µM compound, 72 hours, relative to DMSO only control, n = 4): -0.92% | EC50 ([3]; hit compounds from the axenic amastigote screen, S3 Table; read-out: EC50, Axenic Amastigotes): 70 nM | EC50 ([3]; read-out: EC50 against amastigotes, Axenic): 69 nM | EC90 ([3]; read-out: EC90 against amastigotes, Axenic): 168 nM

C[C@@H]1[C@H](O)[C@@H](C)/C=C/C=C/C=C/C=C/C=C/C=C/C=C/[C@H](O[C@@H]2O[C@H](C)[C@@H](O)[C@H](N)[C@@H]2O)C[C@@H]2O[C@](O)(C[C@@H](O)C[C@@H](O)[C@H](O)CC[C@@H](O)C[C@@H](O)CC(=O)O[C@H]1C)C[C@H](O)[C@H]2C(=O)O [Amphotericin B, reference compound]
decrease of bioluminescent signal [2]: ≥ 99% | EC50 ([2]; Leishmania mexicana, THP-1): 105 nM | EC90 ([2]; Leishmania mexicana, THP-1): 185 nM | EC50 [5]: 270 nM | EC50 [3, 14]: 200 nM | viability at 2 µM [3, 10]: 58.3% | viability at 10 µM [3, 11]: 48.4% | EC50 ([3]; Leishmania mexicana; axenic amastigotes; span over parental and transgenic line, both bioluminescence- and fluorescence-based assays; read-out: EC50 values from the parental and transgenic line): 200 to 270 nM | EC50 [3, 12]: 201 nM | EC90 [3, 13]: 279 nM | EC50 [6]: 300 nM and 303 nM

CCCCCCCCCCCCCCCCOP(=O)([O-])OCC[N+](C)(C)C [Miltefosine, reference compound]
EC50 ([2]; Leishmania mexicana, THP-1): 10900 nM | EC90 ([2]; Leishmania mexicana, THP-1): 37300 nM | EC50 [7]: 15700 nM | EC50 [5]: 1990 nM | EC50 [8]: 1110 nM | EC50 [3, 14]: 2190 nM | EC50 ([3]; Leishmania mexicana, read-out: EC50 against amastigotes, Axenic): 1990 nM | viability at 2 µM [3, 10]: 43% | viability at 10 µM [3, 11]: 11.5% | EC90 [3, 13]: 19800 nM
